The text below walks through data of US10906915B2, “Substituted pyrazoloazepin-4-ones and their use as phosphodiesterase inhibitors” (LEO Pharma A/S, priority 2016, dated 2021).

Structures are written as SMILES.

Chain of human PDE4D catalytic domain (Q08499 380-740 limits assumed): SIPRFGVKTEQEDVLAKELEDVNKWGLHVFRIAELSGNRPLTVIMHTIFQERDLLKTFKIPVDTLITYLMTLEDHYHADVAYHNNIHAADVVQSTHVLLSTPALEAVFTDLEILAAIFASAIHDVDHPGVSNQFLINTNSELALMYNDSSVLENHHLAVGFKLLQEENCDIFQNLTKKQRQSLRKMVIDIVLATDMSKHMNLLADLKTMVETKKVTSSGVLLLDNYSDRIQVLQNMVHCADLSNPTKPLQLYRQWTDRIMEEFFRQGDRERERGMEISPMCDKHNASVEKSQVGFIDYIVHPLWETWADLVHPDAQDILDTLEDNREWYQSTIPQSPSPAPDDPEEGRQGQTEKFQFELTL

The first assay has as its target human PDE4D catalytic domain (UniProt no. Q08499) (Homo sapiens (Human), UniProt Q08499). The assay is described as follows: PDE4 assay (TR-FRET, FAM-cAMP cleavage). Format: biochemical. To be noted: human PDE4D catalytic domain; molar concentration giving 50% inhibition of substrate cleavage; read-out: PDE4 IC50 range. The procedure, abridged:
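Read-out is time-resolved FRET from Tb donor to FAM-AMP captured on trivalent-metal nanoparticles added to stop the reaction. Substrate was a mix of plain and FAM-labelled cAMP, cleaved by human PDE4D catalytic domain ([…]) with titrated compound; IC50 ranges (nM) versus controls.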
Background: Time-resolved FRET reads energy transfer from a long-lived donor to a nearby acceptor.
By IC50 is commonly meant the concentration needed to halve the response being measured. As for `CCc1nn(C[C@@H](C)COC(=O)c2ccc(C(F)(F)F)c(C(F)(F)F)c2)c2c1C(=O)NCC1(CCOCC1)C2` [Example 247, [(2R)-3-(3-ethyl-4-oxo-spiro[6,8-dihydro-5H-pyrazolo[4,3-c]azepine-7,4′-tetrahydropyran]-1-yl)-2-methyl-propyl] 3,4-bis(trifluoromethyl)benzoate], the IC50 is less than 100 nM.
`CCc1nn(C[C@@H](C)COC(=O)c2cccc(S(=O)(=O)N3CCOCC3)c2)c2c1C(=O)NCC1(CCOCC1)C2` [Example 248, [(2R)-3-(3-ethyl-4-oxo-spiro[6,8-dihydro-5H-pyrazolo[4,3-c]azepine-7,4′-tetrahydropyran]-1-yl)-2-methyl-propyl] 3-morpholinosulfonylbenzoate]: the IC50 was less than 100 nM.
For the compound `CCc1nn(C[C@@H](C)COC(=O)c2ccc(S(=O)(=O)N3CCOCC3)cc2)c2c1C(=O)NCC1(CCOCC1)C2` [Example 249, [(2R)-3-(3-ethyl-4-oxo-spiro[6,8-dihydro-5H-pyrazolo[4,3-c]azepine-7,4′-tetrahydropyran]-1-yl)-2-methyl-propyl] 4-morpholinosulfonylbenzoate], the IC50 is less than 100 nM.
Consider `CCc1nn(C[C@@H](C)COC(=O)c2ccc(S(=O)(=O)N3CCN(C(C)=O)CC3)cc2)c2c1C(=O)NCC1(CCOCC1)C2` [Example 250, [(2R)-3-(3-ethyl-4-oxo-spiro[6,8-dihydro-5H-pyrazolo[4,3-c]azepine-7,4′-tetrahydropyran]-1-yl)-2-methyl-propyl] 4-(4-acetylpiperazin-1-yl)sulfonylbenzoate], for which the half-maximal inhibitory concentration (IC50) is less than 100 nM.
Take `CCc1nn(C[C@@H](C)COC(=O)c2cccc(S(=O)(=O)N3CCN(C(C)=O)CC3)c2)c2c1C(=O)NCC1(CCOCC1)C2` [Example 251, [(2R)-3-(3-ethyl-4-oxo-spiro[6,8-dihydro-5H-pyrazolo[4,3-c]azepine-7,4′-tetrahydropyran]-1-yl)-2-methyl-propyl] 3-(4-acetylpiperazin-1-yl)sulfonylbenzoate]: the IC50 is less than 100 nM.
In the case of `CCc1nn(C[C@@H](C)COC(=O)c2ccc(C(N)=O)cc2)c2c1C(=O)NCC1(CCOCC1)C2` [Example 252, [(2R)-3-(3-ethyl-4-oxo-spiro[6,8-dihydro-5H-pyrazolo[4,3-c]azepine-7,4′-tetrahydropyran]-1-yl)-2-methyl-propyl] 4-carbamoylbenzoate], the IC50 was less than 100 nM.
The same measure, in the same setting: the same measure for `CCc1nn(C[C@@H](C)COC(=O)c2ccc(C(=O)NC)cc2)c2c1C(=O)NCC1(CCOCC1)C2` [Example 253, [(2R)-3-(3-ethyl-4-oxo-spiro[6,8-dihydro-5H-pyrazolo[4,3-c]azepine-7,4′-tetrahydropyran]-1-yl)-2-methyl-propyl] 4-(methylcarbamoyl)benzoate]: less than 100 nM.
Same read-out and setting: the value for `CCNC(=O)c1ccc(C(=O)OC[C@H](C)Cn2nc(CC)c3c2CC2(CCOCC2)CNC3=O)cc1` [Example 254, [(2R)-3-(3-ethyl-4-oxo-spiro[6,8-dihydro-5H-pyrazolo[4,3-c]azepine-7,4′-tetrahydropyran]-1-yl)-2-methyl-propyl] 4-(ethylcarbamoyl)benzoate] was less than 100 nM; that for `CCc1nn(C[C@@H](C)COC(=O)c2ccc(C(=O)N(C)C)cc2)c2c1C(=O)NCC1(CCOCC1)C2` [Example 255, [(2R)-3-(3-ethyl-4-oxo-spiro[6,8-dihydro-5H-pyrazolo[4,3-c]azepine-7,4′-tetrahydropyran]-1-yl)-2-methyl-propyl] 4-(dimethylcarbamoyl)benzoate] was less than 100 nM.
Still for that read-out and setting: the value for `CCc1nn(C[C@@H](C)COC(=O)c2ccc(C(=O)NC(C)C)cc2)c2c1C(=O)NCC1(CCOCC1)C2` [Example 256, [(2R)-3-(3-ethyl-4-oxo-spiro[6,8-dihydro-5H-pyrazolo[4,3-c]azepine-7,4′-tetrahydropyran]-1-yl)-2-methyl-propyl] 4-(isopropylcarbamoyl)benzoate] was less than 100 nM; that for `CCc1nn(C[C@@H](C)COC(=O)c2ccc(C(=O)N3CCCC3)cc2)c2c1C(=O)NCC1(CCOCC1)C2` [Example 257, [(2R)-3-(3-ethyl-4-oxo-spiro[6,8-dihydro-5H-pyrazolo[4,3-c]azepine-7,4′-tetrahydropyran]-1-yl)-2-methyl-propyl] 4-(pyrrolidine-1-carbonyl)benzoate] was less than 100 nM.
Take `CCc1nn(C[C@@H](C)COC(=O)c2ccc(C(=O)N3CCCCC3)cc2)c2c1C(=O)NCC1(CCOCC1)C2` [Example 258, [(2R)-3-(3-ethyl-4-oxo-spiro[6,8-dihydro-5H-pyrazolo[4,3-c]azepine-7,4′-tetrahydropyran]-1-yl)-2-methyl-propyl] 4-(piperidine-1-carbonyl)benzoate]: the IC50 was less than 100 nM.
On the same count and under the same terms, the value for `CCc1nn(C[C@@H](C)COC(=O)c2ccc(C(=O)N3CCNCC3)cc2)c2c1C(=O)NCC1(CCOCC1)C2` [Example 259, [(2R)-3-(3-ethyl-4-oxo-spiro[6,8-dihydro-5H-pyrazolo[4,3-c]azepine-7,4′-tetrahydropyran]-1-yl)-2-methyl-propyl] 4-(piperazine-1-carbonyl)benzoate] was less than 100 nM.
Consider `CCc1nn(C[C@@H](C)COC(=O)c2ccc(C(=O)N3CCOCC3)cc2)c2c1C(=O)NCC1(CCOCC1)C2` [Example 260, [(2R)-3-(3-ethyl-4-oxo-spiro[6,8-dihydro-5H-pyrazolo[4,3-c]azepine-7,4′-tetrahydropyran]-1-yl)-2-methyl-propyl] 4-(morpholine-4-carbonyl)benzoate], for which the IC50 is less than 100 nM.
Same read-out and setting: the same measure for `CCc1nn(C[C@@H](C)COC(=O)c2ccc(C(=O)N3CCN(C)CC3)cc2)c2c1C(=O)NCC1(CCOCC1)C2` [Example 261, [(2R)-3-(3-ethyl-4-oxo-spiro[6,8-dihydro-5H-pyrazolo[4,3-c]azepine-7,4′-tetrahydropyran]-1-yl)-2-methyl-propyl] 4-(4-methylpiperazine-1-carbonyl)benzoate]: less than 100 nM.
As for `CCc1nn(C[C@@H](C)COC(=O)c2ccc(C(=O)N3CCN(C(C)=O)CC3)cc2)c2c1C(=O)NCC1(CCOCC1)C2` [Example 262, [(2R)-3-(3-ethyl-4-oxo-spiro[6,8-dihydro-5H-pyrazolo[4,3-c]azepine-7,4′-tetrahydropyran]-1-yl)-2-methyl-propyl] 4-(4-acetylpiperazine-1-carbonyl)benzoate], the IC50 is less than 100 nM.

The same assay, now with this note: read-out: PDE4 IC50 range.
Regarding `CCc1nn(C[C@@H](C)COC(=O)c2cccc(C(N)=O)c2)c2c1C(=O)NCC1(CCOCC1)C2` [Example 263, [(2R)-3-(3-ethyl-4-oxo-spiro[6,8-dihydro-5H-pyrazolo[4,3-c]azepine-7,4′-tetrahydropyran]-1-yl)-2-methyl-propyl] 3-carbamoylbenzoate], the IC50 is less than 100 nM.
Same read-out and setting: the value for `CCc1nn(C[C@@H](C)COC(=O)c2cccc(C(=O)NC)c2)c2c1C(=O)NCC1(CCOCC1)C2` [Example 264, [(2R)-3-(3-ethyl-4-oxo-spiro[6,8-dihydro-5H-pyrazolo[4,3-c]azepine-7,4′-tetrahydropyran]-1-yl)-2-methyl-propyl] 3-(methylcarbamoyl)benzoate] was less than 100 nM; that for `CCNC(=O)c1cccc(C(=O)OC[C@H](C)Cn2nc(CC)c3c2CC2(CCOCC2)CNC3=O)c1` [Example 265, [(2R)-3-(3-ethyl-4-oxo-spiro[6,8-dihydro-5H-pyrazolo[4,3-c]azepine-7,4′-tetrahydropyran]-1-yl)-2-methyl-propyl] 3-(ethylcarbamoyl)benzoate] was less than 100 nM.
